# Test results reported in patent US12673975B2, “Cyclic peptide, cell scaffold material, cell separating material, and medium” (FUJIFILM Corporation, priority 2019, dated 2026).
# Read-outs that look alike come from different tables or passages of the source. Starred links: 1 amine or outer side, 2 acyl side, 3 side chain; linkers in the order of their positions; H or OH if unused. Positions of bridges follow the written chain, without caps; N, C: chain ends. Non-standard residues stand in square brackets, D forms with d. Residues, ends and D or L forms follow the SMILES beside them. Pen = CC(C)(S)[C@H](N)C(=O)O; hCys = N[C@@H](CCS)C(=O)O; Orn = NCCC[C@H](N)C(=O)O; Dab = NCC[C@H](N)C(=O)O; X1 = O=C(C[*:2])[*:1]; X2 = O=C(C[*:1])[*:2]
# Experiments:
# [1] = Evaluation of molecule stability (alkali treatment, residual rate by LC/MS); assay type: physicochemical; settings: for Stability (molecule stability, residual rate of the cyclic peptide rank): alkali treatment, residual rate by LC/MS; for Performance evaluation: Stability (residual rate of cyclic peptide after alkali treatment): 500 μM peptide aqueous solution plus equivalent of 1 M sodium hydroxide, 15° C., 3 hours, LC/MS peak area
# Summary of the method: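 Stability read as percent of summed LC/MS peak area remaining versus untreated peptide (C18, 45 °C, 10 mM ammonium formate pH 3, ESI positive/negative). Treatment: 500 μM peptide in water plus an equivalent of 1 M NaOH, 15 °C for 3 hours.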
# human integrin αvβ5 = human integrin αvβ5 (Homo sapiens, UniProt P06756+P18084); assay: Evaluation of integrin binding property (surface plasmon resonance, Biacore 3000, immobilized cyclic peptide)
# human integrin αvβ5, sequence (P06756 31-1048): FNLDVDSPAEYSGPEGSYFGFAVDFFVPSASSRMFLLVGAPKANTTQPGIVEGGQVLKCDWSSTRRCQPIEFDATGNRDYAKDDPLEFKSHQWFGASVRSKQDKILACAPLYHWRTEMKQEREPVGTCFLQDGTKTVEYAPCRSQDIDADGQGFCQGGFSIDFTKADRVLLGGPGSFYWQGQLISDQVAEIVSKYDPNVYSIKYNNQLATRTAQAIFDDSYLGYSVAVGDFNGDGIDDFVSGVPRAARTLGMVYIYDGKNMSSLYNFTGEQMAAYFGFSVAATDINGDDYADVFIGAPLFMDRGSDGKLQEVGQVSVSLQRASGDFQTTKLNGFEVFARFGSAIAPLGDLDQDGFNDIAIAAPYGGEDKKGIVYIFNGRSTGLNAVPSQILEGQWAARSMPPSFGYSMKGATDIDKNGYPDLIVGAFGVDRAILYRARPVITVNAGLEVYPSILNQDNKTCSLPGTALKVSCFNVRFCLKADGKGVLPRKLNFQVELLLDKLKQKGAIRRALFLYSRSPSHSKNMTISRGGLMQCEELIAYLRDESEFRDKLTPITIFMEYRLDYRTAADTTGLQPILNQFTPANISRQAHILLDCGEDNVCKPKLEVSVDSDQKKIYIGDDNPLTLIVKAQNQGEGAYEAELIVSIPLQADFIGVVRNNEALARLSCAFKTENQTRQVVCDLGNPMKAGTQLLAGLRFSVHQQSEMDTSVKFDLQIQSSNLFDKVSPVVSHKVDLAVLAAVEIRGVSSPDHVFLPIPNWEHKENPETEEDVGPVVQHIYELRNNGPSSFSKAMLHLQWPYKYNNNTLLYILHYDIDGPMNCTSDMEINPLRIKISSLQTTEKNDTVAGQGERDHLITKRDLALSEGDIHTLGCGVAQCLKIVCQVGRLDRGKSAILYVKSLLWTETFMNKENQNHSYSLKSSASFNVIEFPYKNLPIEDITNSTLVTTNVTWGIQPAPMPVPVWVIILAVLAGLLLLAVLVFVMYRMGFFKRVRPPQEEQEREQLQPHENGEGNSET
# human integrin αvβ5, sequence (P18084 24-799): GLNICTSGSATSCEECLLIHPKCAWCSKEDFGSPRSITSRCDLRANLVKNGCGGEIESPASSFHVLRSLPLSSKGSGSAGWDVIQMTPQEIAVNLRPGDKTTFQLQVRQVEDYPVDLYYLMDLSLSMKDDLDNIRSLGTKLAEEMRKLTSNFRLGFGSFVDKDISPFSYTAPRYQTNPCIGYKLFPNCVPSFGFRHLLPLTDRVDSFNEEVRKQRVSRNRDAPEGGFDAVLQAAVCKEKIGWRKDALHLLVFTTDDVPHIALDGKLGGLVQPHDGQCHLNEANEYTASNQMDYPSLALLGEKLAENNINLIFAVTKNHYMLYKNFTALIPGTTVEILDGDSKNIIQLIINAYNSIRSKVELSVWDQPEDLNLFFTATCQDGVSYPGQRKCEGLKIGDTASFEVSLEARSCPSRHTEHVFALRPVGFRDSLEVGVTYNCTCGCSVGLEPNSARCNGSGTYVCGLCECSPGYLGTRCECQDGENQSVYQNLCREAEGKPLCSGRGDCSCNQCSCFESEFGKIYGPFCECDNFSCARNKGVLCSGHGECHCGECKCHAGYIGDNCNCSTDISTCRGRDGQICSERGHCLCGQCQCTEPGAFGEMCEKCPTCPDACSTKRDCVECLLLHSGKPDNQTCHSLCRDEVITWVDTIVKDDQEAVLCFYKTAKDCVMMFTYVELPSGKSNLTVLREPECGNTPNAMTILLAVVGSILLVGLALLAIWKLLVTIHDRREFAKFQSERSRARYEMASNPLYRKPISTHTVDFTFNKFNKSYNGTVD
# Summary of the method: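 Human αvβ5 (30-1,000 nM) flowed for 10 min at 25 °C over immobilized cyclic peptide in 20 mM HEPES, 150 mM NaCl, 5 mM MgCl2, pH 7.4, followed by 30 min running buffer and 0.5 M EDTA regeneration. Dissociation constant from peptide minus unimmobilized channel, scored into standard grades.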
# [2] = surface plasmon resonance, immobilized cyclic peptide, human integrin αvβ5, read-out: Binding activity (integrin binding property, dissociation constant rank)
# [3] = SPR, 25° C., HEPES buffer with 5 mM magnesium chloride, integrin 30-1,000 nM, read-out: Performance evaluation: Binding activity (dissociation constant between the cyclic peptide and human integrin αvβ5)
Kd (human integrin αvβ5; [2]),Kd (human integrin αvβ5; [3]),SMILES,"Stability (molecule stability, residual rate of the cyclic peptide rank) [1]",Performance evaluation: Stability (residual rate of cyclic peptide after alkali treatment) [1]
< 0.05 µM,–,"CC(C)[C@@H]1NC(=O)[C@@H](NC(=O)[C@H](C)NC(=O)[C@H](CCCCN)NC(=O)[C@H](CCCCN)NC(=O)[C@H](CCCCN)NC(=O)[C@H](CCCCN)NC(=O)[C@H](CCCCN)NC(=O)[C@@H](N)CCCCN)CCSCC(=O)NCC[C@@H](C(=O)N[C@@H](C)C(=O)O)NC(=O)[C@H](C)NC(=O)[C@H](Cc2ccccc2)NC(=O)[C@H]([C@@H](C)O)NC(=O)[C@H](CC(=O)O)NC(=O)CNC(=O)[C@H](CCCNC(=N)N)NC(=O)[C@@H]2CCCN2C1=O [Cyclic peptide 112, KKKKKKA-(Hcy)-VPRGDTFA(Dab(acetyl))A] (H-KKKKKKA[hCys]VPRGDTFA[Dab]A-OH; linker 8-17 via X2)",A (The residual rate of the cyclic peptide is 70% or more.),–
–,< 0.05 µM,"CC[C@H](C)[C@@H]1NC(=O)[C@@H](NC(=O)CNC(=O)[C@H](CCCCN)NC(=O)[C@H](CCCCN)NC(=O)[C@@H](N)CCCCN)CCSCC(=O)NCC[C@@H](C(=O)N[C@@H](C)C(=O)O)NC(=O)[C@H](C)NC(=O)[C@H](Cc2ccccc2)NC(=O)[C@H](CO)NC(=O)[C@H](CC(=O)O)NC(=O)CNC(=O)[C@H](CCCNC(=N)N)NC(=O)[C@@H]2CCCN2C1=O [Cyclic peptide 94, KKKG-(Hcy)-IPRGDSFA(Dab(acetyl))A] (H-KKKG[hCys]IPRGDSFA[Dab]A-OH; linker 5-14 via X2)",–,A (The residual rate of the cyclic peptide is 70% or more.)
–,< 0.05 µM,"CC[C@H](C)[C@@H]1NC(=O)[C@@H](NC(=O)[C@H](C)NC(=O)[C@H](CCCCN)NC(=O)[C@H](CCCCN)NC(=O)[C@@H](N)CCCCN)CCSCC(=O)NCC[C@@H](C(=O)N[C@@H](CC(=O)O)C(=O)O)NC(=O)[C@H](CCCNC(=N)N)NC(=O)[C@H](Cc2ccc(O)cc2)NC(=O)[C@H](CC(N)=O)NC(=O)[C@H](CC(=O)O)NC(=O)CNC(=O)[C@H](CCCNC(=N)N)NC(=O)[C@@H]2CCCN2C1=O [Cyclic peptide 30, KKKA-(Hcy)-IPRGDNYR(Dab(acetyl))D] (H-KKKA[hCys]IPRGDNYR[Dab]D-OH; linker 5-14 via X2)",–,A (The residual rate of the cyclic peptide is 70% or more.)
< 0.05 µM,–,"CC[C@H](C)[C@@H]1NC(=O)[C@@H](NC(=O)[C@H](C)N)CCSCC(=O)NCC[C@@H](C(=O)NCC(=O)O)NC(=O)[C@H](C)NC(=O)[C@H](Cc2ccccc2)NC(=O)[C@H](CO)NC(=O)[C@H](CC(=O)O)NC(=O)CNC(=O)[C@H](CCCNC(=N)N)NC(=O)[C@@H]2CCCN2C1=O [Cyclic peptide 127, A-(Hcy)-IPRGDSFA(Dab(acetyl))G] (H-A[hCys]IPRGDSFA[Dab]G-OH; linker 2-11 via X2)",A (The residual rate of the cyclic peptide is 70% or more.),–
–,< 0.05 µM,"CC[C@H](C)[C@@H]1NC(=O)[C@@H](NC(=O)[C@H](C)NC(=O)[C@H](CCCCN)NC(=O)[C@H](CCCCN)NC(=O)[C@@H](N)CCCCN)CCSCC(=O)NCC[C@@H](C(=O)N[C@@H](C)C(=O)O)NC(=O)[C@H](CCCNC(=N)N)NC(=O)[C@H](Cc2ccccc2)NC(=O)[C@H]([C@@H](C)O)NC(=O)[C@H](CC(=O)O)NC(=O)CNC(=O)[C@H](CCCNC(=N)N)NC(=O)[C@H](CO)NC1=O [Cyclic peptide 77, KKKA-(Hcy)-ISRGDTFR(Dab(acetyl))A] (H-KKKA[hCys]ISRGDTFR[Dab]A-OH; linker 5-14 via X2)",–,A (The residual rate of the cyclic peptide is 70% or more.)
–,0.1 to 0.2 µM,"C[C@H](NC(=O)[C@H](CCCCN)NC(=O)[C@H](CCCCN)NC(=O)[C@@H](N)CCCCN)C(=O)N[C@H]1CCSCC(=O)NCC[C@@H](C(=O)N[C@@H](CC(=O)O)C(=O)O)NC(=O)[C@H](CC(=O)O)NC(=O)[C@H](Cc2ccc(O)cc2)NC(=O)[C@H](CC(N)=O)NC(=O)[C@H](CC(=O)O)NC(=O)CNC(=O)[C@H](CCCNC(=N)N)NC(=O)[C@@H]2CCCN2C(=O)[C@H](CCC(=O)O)NC1=O [Cyclic peptide 35, KKKA-(Hcy)-EPRGDNYD(Dab(acetyl))D] (H-KKKA[hCys]EPRGDNYD[Dab]D-OH; linker 5-14 via X2)",–,A (The residual rate of the cyclic peptide is 70% or more.)
–,0.05 to 0.1 µM,"C[C@H](NC(=O)[C@H](CCCCN)NC(=O)[C@H](CCCCN)NC(=O)[C@@H](N)CCCCN)C(=O)N[C@H]1CCSCC(=O)NCC[C@@H](C(=O)NCC(=O)O)NC(=O)[C@H](CCCNC(=N)N)NC(=O)[C@H](Cc2ccc(O)cc2)NC(=O)[C@H](CC(N)=O)NC(=O)[C@H](CC(=O)O)NC(=O)CNC(=O)[C@H](CCCNC(=N)N)NC(=O)[C@@H]2CCCN2C(=O)[C@H](CCC(=O)O)NC1=O [Cyclic peptide 40, KKKA-(Hcy)-EPRGDNYR(Dab(acetyl))G] (H-KKKA[hCys]EPRGDNYR[Dab]G-OH; linker 5-14 via X2)",–,A (The residual rate of the cyclic peptide is 70% or more.)
–,< 0.05 µM,"CC[C@H](C)[C@@H]1NC(=O)[C@@H](NC(=O)[C@H](C)NC(=O)[C@H](CCCCN)NC(=O)[C@H](CCCCN)NC(=O)[C@@H](N)CCCCN)CCSCC(=O)NCC[C@@H](C(=O)N[C@@H](C)C(=O)O)NC(=O)[C@H](C)NC(=O)[C@H](Cc2ccccc2)NC(=O)[C@H](CO)NC(=O)[C@H](CC(=O)O)NC(=O)CNC(=O)[C@H](CCCNC(=N)N)NC(=O)[C@@H]2CCCN2C1=O [Cyclic peptide 92, KKKA-(Hcy)-IPRGDSFA(Dab(acetyl))A] (H-KKKA[hCys]IPRGDSFA[Dab]A-OH; linker 5-14 via X2)",–,A (The residual rate of the cyclic peptide is 70% or more.)
–,< 0.05 µM,"CC[C@H](C)[C@@H]1NC(=O)[C@@H](NC(=O)[C@H](CCCCN)NC(=O)[C@H](CCCCN)NC(=O)[C@@H](N)CCCCN)CCSCC(=O)NCC[C@@H](C(=O)O)NC(=O)[C@H](Cc2ccccc2)NC(=O)[C@H]([C@@H](C)O)NC(=O)[C@H](CC(=O)O)NC(=O)CNC(=O)[C@H](CCCNC(=N)N)NC(=O)[C@@H]2CCCN2C1=O [Cyclic peptide 63, KKK-(Hcy)-IPRGDTF(Dab(acetyl))] (H-KKK[hCys]IPRGDTF[Dab]-OH; linker 4-12 via X2)",–,A (The residual rate of the cyclic peptide is 70% or more.)
–,< 0.05 µM,"C[C@H](NC(=O)[C@H](CCCCN)NC(=O)[C@H](CCCCN)NC(=O)[C@@H](N)CCCCN)C(=O)N[C@H]1CCSCC(=O)NCC[C@@H](C(=O)N[C@@H](CC(=O)O)C(=O)O)NC(=O)[C@H](CCCNC(=N)N)NC(=O)[C@H](Cc2ccc(O)cc2)NC(=O)[C@H](CC(N)=O)NC(=O)[C@H](CC(=O)O)NC(=O)CNC(=O)[C@H](CCCNC(=N)N)NC(=O)[C@@H]2CCCN2C(=O)[C@H](Cc2ccc(O)cc2)NC1=O [Cyclic peptide 32, KKKA-(Hcy)-YPRGDNYR(Dab(acetyl))D] (H-KKKA[hCys]YPRGDNYR[Dab]D-OH; linker 5-14 via X2)",–,A (The residual rate of the cyclic peptide is 70% or more.)
–,< 0.05 µM,"CC[C@H](C)[C@@H]1NC(=O)[C@@H](NC(=O)[C@H](C)NC(=O)[C@H](CCCCN)NC(=O)[C@H](CCCCN)NC(=O)[C@@H](N)CCCCN)CCSCC(=O)NCC[C@@H](C(=O)N[C@@H](C)C(=O)O)NC(=O)[C@H](CCCNC(=N)N)NC(=O)[C@H](Cc2ccccc2)NC(=O)[C@H](C(C)C)NC(=O)[C@H](CC(=O)O)NC(=O)CNC(=O)[C@H](CCCNC(=N)N)NC(=O)[C@@H]2CCCN2C1=O [Cyclic peptide 78, KKKA-(Hcy)-IPRGDVFR(Dab(acetyl))A] (H-KKKA[hCys]IPRGDVFR[Dab]A-OH; linker 5-14 via X2)",–,A (The residual rate of the cyclic peptide is 70% or more.)
< 0.05 µM,–,"CC[C@H](C)[C@@H]1NC(=O)[C@@H](NC(=O)CNC(=O)[C@H](CCCCN)NC(=O)[C@H](CCCCN)NC(=O)[C@@H](N)CCCCN)C(C)(C)SCC(=O)NCCC[C@@H](C(=O)N[C@@H](C)C(=O)O)NC(=O)[C@H](CCCNC(=N)N)NC(=O)[C@H](Cc2ccccc2)NC(=O)[C@H]([C@@H](C)O)NC(=O)[C@H](CC(=O)O)NC(=O)CNC(=O)[C@H](CCCNC(=N)N)NC(=O)[C@@H]2CCCN2C1=O [Cyclic peptide 130, KKKG-(Pen)-IPRGDTFR(Orn(acetyl))A] (H-KKKG[Pen]IPRGDTFR[Orn]A-OH; linker 5-14 via X2)",A (The residual rate of the cyclic peptide is 70% or more.),–
< 0.05 µM,–,"CC[C@H](C)[C@@H]1NC(=O)[C@@H](NC(=O)CNC(=O)[C@H](CCCCN)NC(=O)[C@H](CCCCN)NC(=O)[C@@H](N)CCCCN)CCCNC(=O)CSCC[C@@H](C(=O)N[C@@H](C)C(=O)O)NC(=O)[C@H](CCCNC(=N)N)NC(=O)[C@H](Cc2ccccc2)NC(=O)[C@H]([C@@H](C)O)NC(=O)[C@H](CC(=O)O)NC(=O)CNC(=O)[C@H](CCCNC(=N)N)NC(=O)[C@@H]2CCCN2C1=O [Cyclic peptide 119, KKKG(Orn(acetyl))IPRGDTFR-(Hcy)-A] (H-KKKG[Orn]IPRGDTFR[hCys]A-OH; linker 5-14 via X1)",A (The residual rate of the cyclic peptide is 70% or more.),–
